Test results taken from ChEMBL document CHEMBL5331131, “Discovery of Acyl-Indole Derivatives as Pan-Serotype Dengue Virus NS4B Inhibitors” (J Med Chem, 2023).
pEC50, pIC50: −log10 of the molar value. In brackets after ≈: the same amount, converted by molar mass.

Columns and labels:
[1] = AUC last in Sprague-Dawley rat at 10 mg/kg, po measured upto 24 to 48 hrs by LC-MS/MS analysis; format: ADME, organism-based; parameters: time upper 48 hrs, dose 10 mg/kg, time lower 24 hrs, route po; conditions: in vivo
[2] = target: Voltage-gated inwardly rectifying potassium channel KCNH2 (Homo sapiens, UniProt Q12809); assay: Displacement of [3H]Dofetilide from human ERG; format: toxicity
[3] = Oral bioavailability in CD-1 mouse at 3 mg/kg measured for 0.5 to 24 hrs by LC-MS/MS analysis; format: ADME, organism-based; conditions: in vivo, time 0.5-24 hrs
dengue virus type 1 = assay: Antiviral activity against DENV-1 TC974#666 infected in african green monkey Vero cells incubated for 24 hrs measured after 3 days post infection; format: functional, organism-based; conditions: TC974#666, Vero
dengue virus type 3 = assay: Antiviral activity against DENV-3 H87 infected in african green monkey Vero cells incubated for 24 hrs measured after 3 days post infection; format: functional, organism-based
dengue virus type 2 [4] = assay: In vivo antiviral activity against DENV-2/RL infected in AG129 mouse assessed as viral load reduction in plasma administered at 30 mg/kg, po bid for 3 days; format: functional; conditions: time 3 day
[5] = AUC last in CD-1 mouse at 10 mg/kg, po measured for 0.5 to 24 hrs by LC-MS/MS analysis; format: ADME, organism-based; parameters: dose 10 mg/kg, time 0.5-24 hrs, route po; conditions: in vivo
dengue virus type 4 = assay: Antiviral activity against DENV-4 H241 infected in african green monkey Vero cells incubated for 24 hrs measured after 3 days post infection; format: functional, organism-based; conditions: Dengue virus, H241, Vero
[6] = Half life in Sprague-Dawley rat at 2.5 mg/kg, iv measured by LC-MS/MS analysis; format: ADME, organism-based; conditions: in vivo
[7] = Volume of distribution at steady state in Sprague-Dawley rat at 2.5 mg/kg, iv measured upto 24 hrs by LC-MS/MS analysis; format: ADME, organism-based; conditions: in vivo, read-out: Vdss
[8] = Metabolic stability in human hepatocytes assessed as intrinsic clearance measured per million cells incubated upto 120 mins by MS analysis; format: ADME, cell-based, Hepatocyte; conditions: read-out: CLH
dengue virus type 2 [9] = assay: Antiviral activity against DENV-2 16681 infected in african green monkey Vero cells incubated for 24 hrs measured after 3 days post infection; format: functional, organism-based; conditions: Dengue virus, 16681, Vero
[10] = Cmax in CD-1 mouse at 3 mg/kg, po measured for 0.5 to 24 hrs by LC-MS/MS analysis; format: ADME, organism-based; parameters: time 0.5-24 hrs, dose 3 mg/kg, route po; conditions: in vivo
[11] = Microsomal stability in human liver microsomes assessed as intrinsic clearance preincubated for 5 mins followed by NADPH addition measured upto 60 mins by LC-MS/MS analysis; format: ADME, Microsome; conditions: time < 65 min, read-out: CLH
[12] = Volume of distribution at steady state in CD-1 mouse at 2.5 mg/kg, iv measured for 0.12 to 24 hrs by LC-MS/MS analysis; format: ADME, organism-based; conditions: in vivo, time 0.12-24 hrs, read-out: Vdss
[13] = Kinetic solubility of the compound in aqueous buffer at pH 7.4 measured after 4 hrs by UPLC/UV analysis; format: physicochemical; conditions: read-out: Kinetic_solubility
[14] = Microsomal stability in mouse liver microsomes assessed as intrinsic clearance preincubated for 5 mins followed by NADPH addition measured upto 60 mins by LC-MS/MS analysis; format: ADME, Microsome; conditions: time < 65 min, read-out: CLH
[15] = AUC last in CD-1 mouse at 1 mg/kg, po measured for 0.5 to 24 hrs by LC-MS/MS analysis; format: ADME, organism-based; parameters: dose 1 mg/kg, time 0.5-24 hrs, route po; conditions: in vivo
[16] = Half life in CD-1 mouse at 2.5 mg/kg, iv measured by LC-MS/MS analysis; format: ADME, organism-based; conditions: in vivo
[17] = Cmax in Sprague-Dawley rat at 10 mg/kg, po measured upto 24 to 48 hrs by LC-MS/MS analysis; format: ADME, organism-based; parameters: time upper 48 hrs, dose 10 mg/kg, time lower 24 hrs, route po; conditions: in vivo
[18] = Cmax in CD-1 mouse at 1 mg/kg, po measured for 0.5 to 24 hrs by LC-MS/MS analysis; format: ADME, organism-based; parameters: dose 1 mg/kg, time 0.5-24 hrs, route po; conditions: in vivo
[19] = AUC last in CD-1 mouse at 3 mg/kg, po measured for 0.5 to 24 hrs by LC-MS/MS analysis; format: ADME, organism-based; parameters: time upper 24 hrs, time lower 0.5 hrs, dose 3 mg/kg, route po; conditions: in vivo
[20] = Microsomal stability in rat liver microsomes assessed as intrinsic clearance preincubated for 5 mins followed by NADPH addition measured upto 60 mins by LC-MS/MS analysis; format: ADME, Microsome; conditions: time < 65 min, read-out: CLH
[21] = Oral bioavailability in Sprague-Dawley rat at 10 mg/kg measured upto 24 to 48 hrs by LC-MS/MS analysis; format: ADME, organism-based; conditions: in vivo, time 24-48 hrs
[22] = Oral bioavailability in CD-1 mouse at 10 mg/kg measured for 0.5 to 24 hrs by LC-MS/MS analysis; format: ADME, organism-based; conditions: in vivo, time 0.5-24 hrs
[23] = Oral bioavailability in CD-1 mouse at 1 mg/kg measured for 0.5 to 24 hrs by LC-MS/MS analysis; format: ADME, organism-based; conditions: in vivo, time 0.5-24 hrs
[24] = Clearance in CD-1 mouse at 2.5 mg/kg, iv measured for 0.12 to 24 hrs by LC-MS/MS analysis; format: ADME, organism-based; conditions: in vivo, time 0.12-24 hrs
dengue virus type 2 [25] = assay: In vivo antiviral activity against DENV-2/RL infected in AG129 mouse assessed as viral load reduction administered at 1 to 30 mg/kg, po bid for 3 days; format: functional, organism-based; conditions: dose 1-30 mg/kg, time 3.0 day
[26] = Cmax in CD-1 mouse at 10 mg/kg, po measured for 0.5 to 24 hrs by LC-MS/MS analysis; format: ADME, organism-based; parameters: dose 10 mg/kg, time 0.5-24 hrs, route po; conditions: in vivo
[27] = Clearance in Sprague-Dawley rat at 2.5 mg/kg, iv measured upto 24 hrs by LC-MS/MS analysis; format: ADME, organism-based; conditions: in vivo

Sequence of Voltage-gated inwardly rectifying potassium channel KCNH2 (Q12809 whole entry): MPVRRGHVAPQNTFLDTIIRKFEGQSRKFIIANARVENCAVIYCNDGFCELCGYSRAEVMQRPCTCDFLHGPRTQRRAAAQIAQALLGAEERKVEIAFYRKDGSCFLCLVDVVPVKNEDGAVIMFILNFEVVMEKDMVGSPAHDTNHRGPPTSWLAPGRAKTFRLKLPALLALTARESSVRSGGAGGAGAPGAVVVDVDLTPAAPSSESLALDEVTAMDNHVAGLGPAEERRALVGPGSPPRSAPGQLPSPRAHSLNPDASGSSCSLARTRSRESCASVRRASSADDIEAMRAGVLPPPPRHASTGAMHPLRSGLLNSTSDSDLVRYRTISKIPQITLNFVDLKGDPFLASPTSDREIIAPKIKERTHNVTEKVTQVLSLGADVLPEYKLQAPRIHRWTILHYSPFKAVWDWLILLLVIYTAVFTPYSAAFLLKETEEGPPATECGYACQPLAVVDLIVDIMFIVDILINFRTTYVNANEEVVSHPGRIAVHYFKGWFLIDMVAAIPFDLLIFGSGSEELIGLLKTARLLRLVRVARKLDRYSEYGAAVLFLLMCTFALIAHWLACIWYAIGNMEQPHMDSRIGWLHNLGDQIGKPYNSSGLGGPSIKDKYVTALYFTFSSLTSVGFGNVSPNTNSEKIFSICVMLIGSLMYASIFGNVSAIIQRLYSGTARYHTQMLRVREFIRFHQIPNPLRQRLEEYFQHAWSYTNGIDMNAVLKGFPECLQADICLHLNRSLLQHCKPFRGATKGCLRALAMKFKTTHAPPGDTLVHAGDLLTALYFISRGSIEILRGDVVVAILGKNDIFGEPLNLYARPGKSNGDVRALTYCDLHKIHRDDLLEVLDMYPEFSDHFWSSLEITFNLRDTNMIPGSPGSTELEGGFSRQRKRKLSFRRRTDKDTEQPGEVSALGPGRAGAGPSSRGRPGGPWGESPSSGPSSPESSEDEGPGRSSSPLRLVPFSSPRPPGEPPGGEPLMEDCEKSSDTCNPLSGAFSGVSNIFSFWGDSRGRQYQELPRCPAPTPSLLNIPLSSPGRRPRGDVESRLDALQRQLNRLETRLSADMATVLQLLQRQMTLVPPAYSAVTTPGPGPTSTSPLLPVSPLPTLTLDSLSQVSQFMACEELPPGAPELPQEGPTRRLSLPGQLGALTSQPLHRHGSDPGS

SMILES: COc1cc(NC(C(=O)c2c[nH]c3cc(OC)c(C)cc23)c2ccc(Cl)cc2OC)cc(OCCO)c1 (single isomer, unassigned; (+))
- AUC(0-t) [1]: 8390 ng·h/mL
- pIC50 [2]: < 5.00
- bioavailability [3]: 54%
- pEC50 (dengue virus type 1): 8.40
- pEC50 (dengue virus type 3): 7.59
- Activity (dengue virus type 2 [4]): 2.9 log10/ml
- AUC(0-t) [5]: 19100 ng·h/mL
- pEC50 (dengue virus type 4): 7.08
- half-life [6]: 11.5 h
- Vd [7]: 6.8 L/kg
- hepatocyte CLint [8]: < 1.9 µL/min/1e6 cells
- pEC50 (dengue virus type 2 [9]): 9.00
- Cmax [10]: 345 ng/mL
- microsomal CLint [11]: < 8 µL/min/mg
- Vd [12]: 3.3 L/kg
- solubility kinetic at 4 h [13]: 0.2 µM (≈ 0.105 µg/mL)
- microsomal CLint [14]: < 8 µL/min/mg
- AUC(0-t) [15]: 872 ng·h/mL
- half-life [16]: 6.2 h
- Cmax [17]: 365 ng/mL
- Cmax [18]: 83 ng/mL
- AUC(0-t) [19]: 4050 ng·h/mL
- microsomal CLint [20]: < 8 µL/min/mg
- bioavailability [21]: 45%
- bioavailability [22]: 76%
- bioavailability [23]: 35%
- clearance [24]: 6.3 mL/min/kg
- Activity (dengue virus type 2 [25]): Dose-Dependent Effect
- Cmax [26]: 1760 ng/mL
- clearance [27]: 6.8 mL/min/kg
